Measurements taken from patent publication US20210393677A1, “COMPOUNDS FOR MODULATION AND AS FUNCTIONAL REPLACEMENT OF ALPHAKETOGLUTARIC ACID (2OG)-DEPENDENT OXYGENASES” (priority 2018, published 2021).

Assays:
HCT116 IDH1+/+ cells = experiment: 2-HG content by LC-MS/MS in HCT116 IDH1+/+ cells; format: cell-based, human; details: ML309 10 μM, untreated 0.15
Description: Es is known that IDH1 mutations are connected with a modified IDH1 enzyme function that induces the excess production of neomorphous metabolite 2-hydroxyglutarate. In order to validate the increased frequency of 2-HG in HCT116 IDH1R132H/+ cells compared to HCT116 IDH1+/+ cells, the 2-HG content was analyzed by means of LC-MS/MS analysis (illustration 1). Intracellular 2-HG in IDH1R132H/+ cells was 56 times higher than in IDH1 wildtype cells (8.5 nmol/mg protein or 0.15 nmol/mg protein; 56 times higher; p<0.0001). Furthermore, the treatment with the IDH1 inhibitor ML309 (10 μM) led to a significant reduction of the oncometabolite 2-HG in the HCT116 IDH1R132H/+ cells to (0.3 nmol/mg protein) and to a lower degree of IDH1+/+ (0.04 nmol/mg protein) (Fig.). In contrast, DKA produced only minimum changes in the 2-HG concentrations in the mutated cells (5.9 nmol/mg protein). […] FIG. 10.
HCT116 (ATCC-Nr. CCL-247), a human colorectal carcinoma cell line, was acquired from the American Type Culture Collection (ATCC; https://www.atcc.org/). Human colon carcinoma cells HCT116 IDH1+/+ and HCT116 IDH1R132H/+ come from Horizon Discovery and were let us for test purposes. The cells were cultured in Dulbecco's Modified Eagle's Medium (DMEM) with 2 mM L-glutamine, supplemented with 10% fetal bovine serum (FBS), 45 IU/ml penicillin and 45 IU/ml streptomycin. […]

[1] = system: TET enzymes in IDH1R132H/+ cells; experiment: activation of TET enzymes in IDH1R132H/+ cells (5-hmdC levels); format: cell-based, human; details: IDH1R132H/+ cells (FIG. 11)
Description: Likewise, promotion of the secondary apoptosis occurs, which indicates the recovery of the cell function on a molecular level (cf. FIG. 11). The native 2-OG again enters into the normal cell metabolism and thus again inhibits the malignant derailment of the cell (secondary way of formation of 2-OG from glutamic acid is omitted).
Samples of genomic DNA (20 μg) were hydrolyzed with micrococcal nuclease from Staphylococcus aureus, bovine spleen phosphodiesterase, and bovine intestinal alkaline phosphatase (all from Sigma-Aldrich, Taufkirchen, Germany) to 2′-deoxynucleosides, as described, with modifications of the application. […] Then, DNA hydrolysates were centrifuged (5 min, 16,000×g), and 10 μL of the supernatants were used for the quantification of dC and 5-mdC stable marked references.
Compounds [15N2,13Cl]dC and 5-mdC-d3 (both from Toronto Research Chemicals, Toronto, Canada). […] Chromatographic conditions and settings of the ESI source were as described for the quantification of dC and 5-mdC [62]. […] The quantification of 5-hmdC with respect to the stable isotope-marked standard that were both eluted at 4.9 min from the LC column (the retention times of dC and 5-mdC were 4.7 or 6.0 min, respectively), was performed with the aid of the Multiple Reaction Monitoring (MRM) approach. […] For clear identification, further mass transitions were recorded. […]

TET enzyme = experiment: cell-free TET assay (co-substrate function); format: biochemical; details: FIG. 16B

| Compound | intracellular 2-HG (HCT116 IDH1+/+ cells) [nmol/mg protein] | activation of the inhibited TET enzymes [1] | effect in the assay (TET enzyme) |
| --- | --- | --- | --- |
| Cc1ccccc1C(C(=O)NC1CCCC1)N(C(=O)Cn1cnc2ccccc21)c1cccc(F)c1 (stereo not drawn) [ML309, reference compound] | 0.04 | does not activate | – |
| O=C(O)C(=O)C(O)C(O)C(O)CO (stereo not drawn) [2-ketogulonic acid] | – | – | dose-dependent effect |
